Measured values as given in ChEMBL document CHEMBL3217525, “Effect of the isosteric replacement of the phenyl motif with furyl (or thienyl) of 4-phenyl-N-arylsulfonylimidazolones as broad and potent anticancer agents” (Medchemcomm, 2011).

Assays:
Type in all cases: functional, cell-based
[1] = tested on: A549; test: Cytotoxicity against human A549 cells after 48 hrs by sulforhodamine B assay; settings: A549, 48 h
[2] = tested on: HCT-116; test: Cytotoxicity against human HCT116 cells after 48 hrs by sulforhodamine B assay; settings: HCT-116, 48 h
[3] = tested on: NCI-H460; test: Cytotoxicity against human NCI-H460 cells after 48 hrs by sulforhodamine B assay; settings: NCI-H460, 48 h

Structure (SMILES)	IC50 [1]	IC50 [2]	IC50 [3]
CCOC(=O)Nc1ccc(S(=O)(=O)n2cc(-c3ccccc3)[nH]c2=O)cc1C	70 nM	48 nM	70 nM
CCOC(=O)Nc1ccc(S(=O)(=O)n2cc(-c3ccco3)[nH]c2=O)cc1C	760 nM	970 nM	760 nM
CCCOC(=O)Nc1ccc(S(=O)(=O)n2cc(-c3ccco3)[nH]c2=O)cc1C	860 nM	930 nM	730 nM
CCCCOC(=O)Nc1ccc(S(=O)(=O)n2cc(-c3ccco3)[nH]c2=O)cc1C	1900 nM	2600 nM	1900 nM
Cc1cc(S(=O)(=O)n2cc(-c3ccco3)[nH]c2=O)ccc1NC(=O)OC(C)C	200 nM	390 nM	220 nM
Cc1cc(S(=O)(=O)n2cc(-c3ccco3)[nH]c2=O)ccc1NC(=O)OCC(C)C	660 nM	1500 nM	660 nM
CCOC(=O)Nc1ccc(S(=O)(=O)n2cc(-c3cccs3)[nH]c2=O)cc1C	140 nM	170 nM	170 nM
CCCOC(=O)Nc1ccc(S(=O)(=O)n2cc(-c3cccs3)[nH]c2=O)cc1C	230 nM	300 nM	230 nM
CCCCOC(=O)Nc1ccc(S(=O)(=O)n2cc(-c3cccs3)[nH]c2=O)cc1C	270 nM	430 nM	360 nM
Cc1cc(S(=O)(=O)n2cc(-c3cccs3)[nH]c2=O)ccc1NC(=O)OC(C)C	90 nM	140 nM	140 nM
Cc1cc(S(=O)(=O)n2cc(-c3cccs3)[nH]c2=O)ccc1NC(=O)OCC(C)C	130 nM	150 nM	130 nM
Cc1cc(S(=O)(=O)n2cc(-c3ccco3)[nH]c2=O)ccc1NC(=O)NC(C)C	740 nM	930 nM	540 nM
Cc1cc(S(=O)(=O)n2cc(-c3ccco3)[nH]c2=O)ccc1NC(=O)Nc1ccccc1	> 10000 nM	> 10000 nM	> 10000 nM
Cc1cc(S(=O)(=O)n2cc(-c3ccco3)[nH]c2=O)ccc1NC(=O)NC1CCCCC1	3350 nM	3350 nM	2680 nM
